These results are taken from patent US5151414A, “Phenoxyethyl amine compounds active on the cardiovascular system” (SIMES Societa Italiana Medicinali e Sintetici S.p.A., priority 1987, dated 1992).

By IC50 is commonly meant the midpoint of a concentration-inhibition curve. A high value points to weaker potency.

SMILES strings stand for the structures.

Assay [1] has as its system dopaminergic activity, cat right atrium. Put plainly: "in vitro" inhibition of the answer to electric stimulation of cat right atrium (dopaminergic activity). Format: biochemical. The source says: (§1) Furthermore, the compounds of formula I show a remarkable dopaminergic activity in addition to an α1 -antagonistic effect. The dopaminergic activity has been evaluated by receptor binding tests as "in vitro" receptor affinity on isolated membranes of rat striated muscle and by pharmacological tests as "in vitro" inhibition of the answer to electric stimulation of cat right atrium.

Assay [2] deals with dopaminergic receptor (isolated membranes of rat striated muscle). Put plainly: receptor binding test, dopaminergic "in vitro" receptor affinity on isolated membranes of rat striated muscle.
Description: as §1

In assay [3] the target is α1 receptor (rat cerebral cortex). Put plainly: α1 receptor binding on rat cerebral cortex. The text has this: (§2) The α1 -antagonistic activity has been evaluated as receptor binding on rat cerebral cortex and as antagonism to contraction induced by phenylephrine (α1 -agonist) on rabbit aorta.
For assay [4], the system named is α1 (rabbit aorta). Put plainly: antagonism to contraction induced by phenylephrine (α1-agonist) on rabbit aorta. Format: biochemical.
Description: as §2

The nature of assay [5]: effects on systemic arterial pressure, heart rate and vascular resistances in anesthetized dog, intravenous route. The format is in vivo. Here is the method: In fact, the compounds object of the present invention reduce meaningfully systemic arterial pressure after administration by intravenous route in anesthetized dog (see example 11). The compound N-[2-(2,6-dichlorophenoxy)-ethyl]-N-propyl-2-amino-5,6-dihydroxy-1,2,3,4-tetrahydronaphthalene hydrochloride (Compound A) was tested by intravenous route in anesthetized dog in order to evaluate the effects on systemic arterial pressure. Compound A, administered by intravenous route at the doses of 10 and 20 μg/kg, reduced systemic arterial pressure as well as peripheral resistances and particularly femoral resistances, the last reduction being associated also with an increase of the corresponding haematic flow.

Take `CCCN(CCOc1c(Cl)cccc1Cl)C1CCc2c(ccc(O)c2O)C1.Cl` (stereo not drawn) [Compound A, N-[2-(2,6-dichlorophenoxy)-ethyl]-N-propyl-2-amino-5,6-dihydroxy-1,2,3,4-tetrahydronaphthalene hydrochloride]: the IC50 amounted to 8.5 µM in assay [1], 0.251 µM in assay [2] and 0.076 µM in assay [3]. In assay [4], the “pA2 (rabbit aorta)” value stood at 7.42. For the same molecule, the Renal resistances in assay [5] (10 μg/kg iv, basal 1.007 + 0.186) amounted to 0.871 ± 0.162 mmHg/ml/min; in assay [5] (20 μg/kg iv, basal 1.246 + 0.389), 1.082 ± 0.367 mmHg/ml/min. Also, the Femoral resistances in assay [5] (10 μg/kg iv, basal 2.471 + 0.260) stood at 1.802 ± 0.471 mmHg/ml/min; in assay [5] (20 μg/kg iv, basal 2.445 + 0.787) it was 1.274 ± 0.171 mmHg/ml/min. Further, the a. femoral flow in assay [5] (10 μg/kg iv, basal 54.1 + 3.8) was 67.4 ± 12.4 mL/min; in assay [5] (20 μg/kg iv, basal 65.6 + 20.0), 87.8 ± 20.0 mL/min. The “Arterial pressure Mn” value in assay [5] (10 μg/kg iv, basal 118 + 5) was determined as 102 ± 8 mmHg; in assay [5] (20 μg/kg iv, basal 118 + 9), 96 ± 11 mmHg. For the same molecule, the “Arterial pressure Md” value in assay [5] (10 μg/kg iv, basal 136 + 4) is reported as 119 ± 7 mmHg; in assay [5] (20 μg/kg iv, basal 132 + 8), 109 ± 9 mmHg. The a. renal flow in assay [5] (10 μg/kg iv, basal 143.7 + 23.7) came out at 144.7 ± 20.6 mL/min; in assay [5] (20 μg/kg iv, basal 129.9 + 31.8) it was 128.9 ± 31.3 mL/min. For the same molecule, the Heart rate in assay [5] (10 μg/kg iv, basal 152 + 11) is 161 ± 12 beats/min; in assay [5] (20 μg/kg iv, basal 136 + 13), 146 ± 17 beats/min. For the same molecule, the “Arterial pressure Mx” value in assay [5] (10 μg/kg iv, basal 160 + 10) was 145 ± 8 mmHg; in assay [5] (20 μg/kg iv, basal 148 + 8) it was 124 ± 9 mmHg. The “femoral resistances (in words)” value in assay [5] (intravenous, 10 and 20 μg/kg) was “reduced”. Also, in assay [5] (intravenous, 10 and 20 μg/kg), the “haematic flow, femoral (in words)” value was “increase”. Also, the “peripheral resistances (in words)” value in assay [5] (intravenous, 10 and 20 μg/kg) is given as “reduced”. The “systemic arterial pressure (in words)” value in assay [5] (intravenous, 10 and 20 μg/kg) was “reduced”.
